Data on one sequence can be found in EP1310511A2, “Oligopeptides for promoting hair growth” (Sumitomo Electric Industries, Ltd., priority 2001, dated 2003).

The test system of this experiment is C57BL/6 mice. The experiment is described as follows: Evaluation of hair growth promoting activity by in vivo method (transition from telogen to anagen on shaved back). The settings on record: 0.2 ml of 0.15mg/ml solution in 50% ethanol/PBS on shaved back, once a day, 5 days in a week, until 38th day. Here is the method:
C3H and C57BL/6 mice are known to have sustained telogen for about 50 days from the 45th day after the birth to around the 95th day. Their hair cycle is easily judged based on the skin color changes, i.e., from pink in telogen to gray or black in anagen. A test for evaluating whether or not the administration the oligopeptides of the present invention promotes the transition from telogen to anagen was carried out using the mice. Seven weeks old (48 to 50-day old, female) C57BL/6 mice were purchased and hair of the back (about 3×2.5 cm^2) was carefully shaved with electric clippers for animals so as not to injure the skin, and the hair cycle was confirmed to be in telogen from the skin color. The oligopeptide solution prepared above was applied to five mice in each group, once a day and 5 days in a week in the amount of 0.2 ml until 38th day from the start of the test. The application was carried out by using a syringe without needle. […]
Plural persons (two persons) observed the mice twice a week by naked eye for evaluation, and gave a 6-graded score depending on a ratio of hair restoration area based on the hair shaved area. […] Hair growth scores were calculated as follows. […] The sum of the above scores in each group was determined as the hair growth score. […]

Where no end group is shown, it is not given here.

On to “SIEQSCDQDE [oligopeptide comprising murine pep7 region]”, for which the “hair restoration / hair growth promoting activity (hair growth score versus control group)” value is reported as “has hair growth promoting activity”.
